Series [1] is described as follows: Stability against water and heat (40° C., 75% relative humidity, HPLC). The conditions noted are these: for percentage of the active ingredient relative to the initial value at day 0: 40° C., relative humidity 75%, sealed. Type of series: physicochemical. The procedure: The stability of an active ingredient, which is used in cosmetic compositions, after water and heat, is an important factor not only in a preparation process, but also in the long-term storage of the composition. Thus, the stabilities of compounds I-1 and I-2, prepared in Examples 1 and 2, respectively, against water and heat, were measured. Specifically, each of compounds I-1 and I-2 was stored in a sealed state under the severe conditions of temperature of 40° C. and relative humidity of 75%, and the percentage of the active ingredient in each sample after 3, 7, 14 and 28 days relative to the initial value of the active value of the active ingredient at day 0 was analyzed by high-performance liquid chromatography (HPLC).

Series [2] relates to B16F1 melanoma cell lines (ATCC CRL-6323). The experiment in a line: Melanin inhibitory effect in B16F1 melanoma cells. In kind it is cell-based. The conditions noted are these: for Melanin/Protein Average: 72 hours, B16F1; for Melanin/Protein EX1: replicate EX1; for Melanin/Protein EX2: replicate EX2; for Melanin/Protein EX3: replicate EX3. The procedure: B16F1 melanoma cell lines (ATCC CRL-6323) were added to a DMEM medium supplemented with 10% fetal bovine serum, 100 U/ml penicillin and 100 μg/ml streptomycin and were cultured under the condition of 37° C. and 5% CO2. After culture, the medium was replaced with DMEM medium (Invitrogen-Gibco-BRL, cells/well), and treated with a suitable amount of a sample solution such that the final concentration of each test compound reached 0 μg/ml, 10 μg/ml, 20 μg/ml or 40 μg/ml. After 72 hours, the medium was removed, and the cells were washed with PBS (phosphate buffered saline), harvested, and dried at 60° C. Next, a melanin extraction solution (1 N NaOH+10% DMSO) was added to the cells which were then lysed at 80° C. Next, the amount of melanin was quantified using synthetic melanin as a standard, and the amount of protein was quantified. The amount of melanin per unit protein was calculated, and expressed as % control value relative to a control.

The subject of series [3] is Human neonatal dermal fibroblast cells. The experiment in a line: Effect on collagen activation: procollagen production in fibroblasts. The settings on record: for Procollagen Average: 48 hours; for Procollagen Ex 1: replicate Ex 1; for Procollagen Ex 2: replicate Ex 2; for Procollagen Ex 3: replicate Ex 3. In kind it is cell-based. As for the experimental part:
Human neonatal dermal fibroblast cells (Cascade Co.) were seeded into a 24-well microplate (5×10^4 cells/well) with DMEM medium supplemented with 10% fetal bovine serum, and were cultured under the condition of 37° C. and 5% CO2 for 24 hours. The medium was replaced with serum-free DMEM medium, and the cells were cultured for 24 hours, and treated with each sample solution such that the final concentration of each test compound reached 1 μg/ml or 5 μg/ml. After 48 hours of culture, the cell culture medium was collected, and the amount of procollagen in the medium was measured using a collagen measurement kit (Takara Shuzo Co., Ltd., Japan). Specifically, the collected cell culture medium was added to a 96-well plate having a primary collagen antibody uniformly applied thereto, and was subjected to an antigen-antibody reaction at 37° C. for 3 hours. The cell culture medium was removed from each well which was then washed four times with PBS. A color-developing substance was added to each well and incubated at room temperature for 15 minutes, and then 1 N sulfuric acid solution was added to each well to stop the reaction. The absorbance at 450 nm was measured with a spectrophotometer. A standard curve was prepared using a standard solution, and the absorbance obtained as described above was substituted into the standard curve to thereby determine the production of procollagen in the cell culture medium in which each test compound was added.

The subject of series [4] is DNA methyltransferase (DNMT). The experiment in a line: Inhibition of DNA methyltransferase (DNMT) activity, Hela cell nuclear extract. Type of series: biochemical. The conditions noted are these: 0.5 μg/ml. As for the experimental part:
In order to examine the mechanism of the effect of compound I-1 on the promotion of procollagen synthesis, the inhibitory effect of the compound against DNMT activity was examined using a nuclear extract isolated from Hela cells and a DNA methyltransferase activity/inhibitor screening assay kit. To a strip coated with cystosine-rich DNA, a Hela cell nuclear extract comprising DNMT, compound I-1, and Adomet, were added. As a positive control, 5-aza-2′-deoxycytidine (5-azadC) was used. A capture antibody, which binds to methylated DNA, and a detection antibody, were sequentially added to the strip, after which a developing solution was added to induce a color developing reaction, and then a stop solution was added to stop the reaction. The absorbance at 450 nm was measured, and based on the measured absorbance, the percent inhibition of DNMT activity was calculated using the following equation 1. Inhibition %=[1−(ODinhibitor−ODblank)/(ODcontrol−[…])]×100 Equation 1

Consider four compounds from patent publication US10239902B2, “Stable peptide-conjugated ascorbic acid derivative, method for preparing same, and cosmetic composition comprising same” (CELLTRION INC., priority 2014, dated 2019).

Where a name gives a salt, the structure may show the parent alone.

In the case of `NC(N)=NCCC[C@H](N)C(=O)NCC(=O)N[C@@H](CC(=O)O)C(=O)NCCCOP(=O)(O)OC1=C(O)C([C@@H](O)CO)OC1=O` (stereo partly drawn) [Compound I-2, (3S)-3-(2-((5)-2-amino-5-((diaminomethylene)amino)pentanamido)acetamido)-4-((3-((((5-((S)-1,2-dihydroxyethyl)-4-hydroxy-2-oxo-2,5-dihydrofuran-3-yl)oxy)(hydroxyl)phosphoryl)oxy)propyl)amino)-4-oxobutanoate hydrochloride], the “percentage of the active ingredient relative to the initial value at day 0” value in series [1] (0 day) is on record as 100%; in series [1] (3 days) it was 100.3%; in series [1] (7 days), 100.0%; in series [1] (14 days), 99.8%; in series [1] (28 days), 99.8%. In series [1] (28 days, compared with LAAP (Vitagen)), the “stability under severe conditions (in words)” value is reported as “excellent stability comparable to that of commercially available LAAP (Vitagen)”. In addition, the “Melanin/Protein Average” value in series [2] (10 μg/ml) was 143.4 µg/mg; in series [2] (20 μg/ml) it was 134.4 µg/mg. For the same compound, the “Melanin/Protein EX1” value is 133.4 µg/mg in series [2] (10 μg/ml) and 137.9 µg/mg in series [2] (20 μg/ml). Moreover, the figures for the “Melanin/Protein EX2” value in series [2] (10 μg/ml) and in series [2] (20 μg/ml) were 145.1 µg/mg and 141.5 µg/mg, respectively. In addition, the “Melanin/Protein EX3” value in series [2] (10 μg/ml) came to 151.7 µg/mg; in series [2] (20 μg/ml), 123.7 µg/mg. The “Procollagen Average” value is 253.1 ng/mL in series [3] (1 μg/ml) and 302.7 ng/mL in series [3] (5 μg/ml). Moreover, the “Procollagen Ex 1” value in series [3] (1 μg/ml) was 252.4 ng/mL; in series [3] (5 μg/ml) it was 298.1 ng/mL. Further, the entries for the “Procollagen Ex 2” value in series [3] (1 μg/ml) and in series [3] (5 μg/ml) were 243.8 ng/mL and 301.6 ng/mL, respectively. Besides, the “Procollagen Ex 3” value in series [3] (1 μg/ml) was determined as 263.1 ng/mL; in series [3] (5 μg/ml) it was 308.5 ng/mL.
`Nc1ncn([C@H]2C[C@H](O)[C@@H](CO)O2)c(=O)n1` [Compound 5-azadC, 5-aza-2′-deoxycytidine, reference compound]: the “Inhibition % Average” value in series [4] is given as 78%. Further, the “Inhibition % Ex 1” value in series [4] (replicate Ex 1) is recorded as 88%. Moreover, in series [4] (replicate Ex 2), the “Inhibition % Ex 2” value is given as 91%. In addition, the “Inhibition % Ex 3” value in series [4] (replicate Ex 3) was determined as 60%. The “Inhibition % Ex 4” value in series [4] (replicate Ex 4) was 57%. Further, in series [4] (replicate Ex 5), the “Inhibition % Ex 5” value amounted to 88%. In series [4] (replicate Ex 6), the “Inhibition % Ex 6” value stood at 85%.
For the compound `NCCCOP(=O)(O)OC1=C(O)C([C@@H](O)CO)OC1=O` (stereo partly drawn) [LAAP, 3-aminopropyl(5-((S)-1,2-dihydroxyethyl)-4-hydroxy-2-oxo-2,5-dihydrofuran-3-yl)hydrogen phosphate, reference compound], in series [1] (0 day), the “percentage of the active ingredient relative to the initial value at day 0” value was determined as 100%. Moreover, the “percentage of the active ingredient relative to the initial value at day 0” value in series [1] (3 days) is listed as 100.4%. Besides, the “percentage of the active ingredient relative to the initial value at day 0” value in series [1] (7 days) turned out to be 100.9%. Besides, the “percentage of the active ingredient relative to the initial value at day 0” value in series [1] (14 days) stood at 99.9%. The “percentage of the active ingredient relative to the initial value at day 0” value in series [1] (28 days) turned out to be 98.5%. For the same compound, in series [2] (10 μg/ml), the “Melanin/Protein Average” value turned out to be 159.9 µg/mg, the “Melanin/Protein EX1” value was 148.2 µg/mg, the “Melanin/Protein EX2” value was determined as 165.8 µg/mg and the “Melanin/Protein EX3” value is 165.8 µg/mg. In series [2] (20 μg/ml), the “Melanin/Protein Average” value was determined as 137.4 µg/mg, the “Melanin/Protein EX1” value was 132.4 µg/mg, the “Melanin/Protein EX2” value is 140.6 µg/mg and the “Melanin/Protein EX3” value was found to be 139.1 µg/mg. In series [3] (1 μg/ml), the “Procollagen Average” value is 242.3 ng/mL, the “Procollagen Ex 1” value turned out to be 231.4 ng/mL, the “Procollagen Ex 2” value was found to be 251.3 ng/mL and the “Procollagen Ex 3” value was 244.1 ng/mL. In addition, in series [3] (5 μg/ml), the “Procollagen Average” value is 281.1 ng/mL, the “Procollagen Ex 1” value is 268.1 ng/mL, the “Procollagen Ex 2” value stood at 276.1 ng/mL and the “Procollagen Ex 3” value was found to be 299.1 ng/mL.
As for “Palmitoyl tripeptide-5 [KVK-Pal, reference compound]”, in series [2] (10 μg/ml), the “Melanin/Protein Average” value worked out at 173.3 µg/mg, the “Melanin/Protein EX1” value worked out at 156.9 µg/mg, the “Melanin/Protein EX2” value stood at 189.1 µg/mg and the “Melanin/Protein EX3” value is 173.8 µg/mg. Moreover, in series [2] (20 μg/ml), the “Melanin/Protein Average” value was determined as 164.2 µg/mg, the “Melanin/Protein EX1” value came out at 151.9 µg/mg, the “Melanin/Protein EX2” value came out at 175.7 µg/mg and the “Melanin/Protein EX3” value turned out to be 165.1 µg/mg. Besides, in series [3] (1 μg/ml), the “Procollagen Average” value was determined as 244.4 ng/mL, the “Procollagen Ex 1” value worked out at 248.9 ng/mL, the “Procollagen Ex 2” value is 259.7 ng/mL and the “Procollagen Ex 3” value amounted to 224.7 ng/mL. Further, in series [3] (5 μg/ml), the “Procollagen Average” value stood at 283.6 ng/mL, the “Procollagen Ex 1” value came to 273.9 ng/mL, the “Procollagen Ex 2” value is 295.5 ng/mL and the “Procollagen Ex 3” value came to 281.3 ng/mL.
